Measurements: ChEMBL document CHEMBL1128669, “The furoxan system as a useful tool for balancing "hybrids" with mixed alpha 1-antagonist and NO-like vasodilator activities” (J Med Chem, 1995)

How the values were obtained:
[1] = species on record: Rattus norvegicus; assay: Inhibition of vasodilating activity was assessed on the epididymal portion of rat vas deferens in the presence of HbO2 in vitro; type: functional
[2] = molecular target: T1, Alpha-1D adrenergic receptor (Rattus norvegicus, UniProt P23944); assay: Partial affinity towards Alpha-1 adrenergic receptor was assessed on rat aortic strips
T1 sequence (P23944 whole entry): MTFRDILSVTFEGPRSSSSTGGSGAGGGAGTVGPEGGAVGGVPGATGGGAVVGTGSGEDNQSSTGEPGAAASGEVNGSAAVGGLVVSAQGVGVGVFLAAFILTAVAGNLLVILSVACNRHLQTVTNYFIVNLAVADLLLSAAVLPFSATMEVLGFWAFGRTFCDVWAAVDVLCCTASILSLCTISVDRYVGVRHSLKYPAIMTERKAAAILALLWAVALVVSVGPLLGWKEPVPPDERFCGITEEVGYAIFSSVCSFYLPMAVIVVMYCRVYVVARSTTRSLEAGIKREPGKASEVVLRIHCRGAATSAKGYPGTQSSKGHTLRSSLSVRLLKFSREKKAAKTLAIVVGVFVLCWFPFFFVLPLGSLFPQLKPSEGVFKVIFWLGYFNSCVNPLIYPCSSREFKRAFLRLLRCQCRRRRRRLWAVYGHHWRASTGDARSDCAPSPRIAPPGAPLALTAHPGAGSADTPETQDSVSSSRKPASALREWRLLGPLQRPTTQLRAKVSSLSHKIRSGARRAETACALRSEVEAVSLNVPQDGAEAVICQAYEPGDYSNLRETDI

[3] = species on record: Rattus norvegicus; assay: Inhibition of vasodilating activity was assessed on the epididymal portion of rat vas deferens in the absence of HbO2 in vitro; type: functional, organism-based
[4] = species on record: Rattus norvegicus; assay: Inhibition of vasodilating activity was assessed on the rat aortic strips in the absence of HbO2 in vitro
[5] = species on record: Rattus norvegicus; assay: Inhibition of vasodilating activity was assessed on the rat aortic strips in the presence of HbO2 in vitro

IC50 [1]	pA2 [2]	IC50 [3]	IC50 [4]	IC50 [5]	SMILES
610 nM	8.96	52 nM			COc1cc2nc(N3CCC(S(=O)(=O)c4no[n+]([O-])c4-c4ccccc4)CC3)nc(N)c2cc1OC
	8.25		2500 nM		COc1cc2nc(N3CCN(C(=O)c4no[n+]([O-])c4C(N)=O)CC3)nc(N)c2cc1OC
700 nM	8.49	95 nM			COc1cc2nc(N3CCC(S(=O)(=O)c4c(-c5ccccc5)no[n+]4[O-])CC3)nc(N)c2cc1OC
	9.17				COc1cc2nc(N3CCC(S(=O)(=O)c4nonc4-c4ccccc4)CC3)nc(N)c2cc1OC
	8.04		9.7 nM	81 nM	COc1cc2nc(N3CCN(C(=O)c4no[n+]([O-])c4C#N)CC3)nc(N)c2cc1OC
	8.55		630 nM		COC(=O)c1c(C(=O)N2CCN(c3nc(N)c4cc(OC)c(OC)cc4n3)CC2)no[n+]1[O-]
